Measurements from ChEMBL document CHEMBL5154822, “Novel inhibitors of AChE and Aβ aggregation with neuroprotective properties as lead compounds for the treatment of Alzheimer's disease” (Eur J Med Chem, 2022).
Active and inactive are the calls of the source. No cut-off for these calls is given here.

What was measured:
Acetylcholinesterase = target: T1, Acetylcholinesterase (Mus musculus, UniProt P21836); test: Inhibition of AChE in mouse cerebral cortex using acetylthiocholine iodide as substrate preincubated for 10 mins followed by substrate addition and measured for 180 secs by Ellman's spectrophotometric method; assay type: tissue-based
T1 sequence (P21836 whole entry): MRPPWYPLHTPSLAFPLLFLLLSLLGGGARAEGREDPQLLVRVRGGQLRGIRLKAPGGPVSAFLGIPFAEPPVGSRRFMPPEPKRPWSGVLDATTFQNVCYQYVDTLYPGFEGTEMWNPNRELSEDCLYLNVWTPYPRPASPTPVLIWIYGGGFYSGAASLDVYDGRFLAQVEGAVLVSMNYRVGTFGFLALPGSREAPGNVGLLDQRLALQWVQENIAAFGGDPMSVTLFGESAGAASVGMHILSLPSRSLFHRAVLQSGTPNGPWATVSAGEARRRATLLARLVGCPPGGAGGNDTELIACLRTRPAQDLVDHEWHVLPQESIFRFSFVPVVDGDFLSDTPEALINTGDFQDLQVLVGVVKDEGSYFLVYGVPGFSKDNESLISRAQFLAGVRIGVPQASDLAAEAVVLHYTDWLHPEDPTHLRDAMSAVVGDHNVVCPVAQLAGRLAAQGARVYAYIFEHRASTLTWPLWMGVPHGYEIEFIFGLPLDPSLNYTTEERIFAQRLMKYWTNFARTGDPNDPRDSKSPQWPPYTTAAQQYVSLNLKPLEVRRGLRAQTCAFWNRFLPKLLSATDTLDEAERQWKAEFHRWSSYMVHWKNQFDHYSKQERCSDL

[1] = target: T2, Acetylcholinesterase (Mus musculus) (UniProt P21836); test: Inhibition of AChE in mouse cerebral cortex using acetylthiocholine iodide as substrate at 40 uM preincubated for 10 mins followed by substrate addition and measured for 180 secs by Ellman's spectrophotometric method; assay type: tissue-based; conditions: time 780.0 sec
T2 sequence (whole entry): T1 sequence (P21836 whole entry)

[2] = Cytotoxicity against human SH-SY5Y cells assessed as maximum non-cytotoxic concentration by CellTiter-Glo luminescent assay; assay type: toxicity, cell-based; conditions: read-out: MNCC
SH-SY5Y [3] = test: Neuroprotective activity in human SH-SY5Y differentiated neuronal cells assessed as inhibition of GA-induced neurite shortening by measuring increase in axon length at 0.5 uM by laser confocal microscope; assay type: functional, cell-based
SH-SY5Y [4] = test: Neuroprotective activity in human SH-SY5Y differentiated neuronal cells assessed as inhibition of GA-induced axon morphology defects at 0.5 uM by laser confocal microscope; assay type: functional, cell-based
SH-SY5Y [5] = test: Neuroprotective activity in human SH-SY5Y differentiated neuronal cells assessed as inhibition of GA-induced cell death by measuring increase in cell viability at 0.5 to 5 uM measured after 24 hrs by MTT assay; assay type: functional, cell-based; conditions: dose 0.5-5 µM
SH-SY5Y [6] = test: Antioxidant activity against okadaic acid-induced ROS generation in human SH-SY5Y cells assessed as reduction in DCF fluorescence intensity at 5 uM pretreated for 24 hrs followed by okadaic acid addition for 24 hrs by DCFH-DA dye based fluorescence analysis; assay type: functional, cell-based; conditions: time 48.0 hrs
SH-SY5Y [7] = test: Neuroprotective activity in human SH-SY5Y cells assessed as inhibition of okadaic acid-induced mitochondrial dysfunction by measuring increase in red-to-green fluorescence intensity ratio pretreated for 24 hrs followed by okadaic acid addition for 24 hrs by JC-1 dye based fluorescence analysis; assay type: functional, cell-based; conditions: dose 0.5-5 µM, time 48.0 hrs, DDE = dose-dependent effect
Mus musculus [8] = test: In vivo inhibition of AChE in ICR mouse cerebral cortex using acetylthiocholine iodide as substrate at 10 mg/kg, ig measured after 1 hr by microplate reader analysis; assay type: functional, organism-based
Mus musculus [9] = test: In vivo inhibition of AChE in ICR mouse hippocampus using acetylthiocholine iodide as substrate at 10 mg/kg, ig measured after 1 hr by microplate reader analysis; assay type: functional, organism-based
Mus musculus [10] = test: Antialzheimer activity against scopolamine-induced cognitive deficit ICR mouse model assessed as improvement in memory impairment by measuring reduction in number of errors at 5 mg/kg, ig by step-through passive avoidance test; assay type: functional, organism-based
Cytochrome P450 2C9 = Cytochrome P450 2C9 (Homo sapiens, UniProt P11712); test: Inhibition of CYP2C9 in human liver microsomes using diclofenac as substrate preincubated for 10 mins followed by NADPH addition and measured after 10 mins by LC-MS/MS analysis; assay type: ADME, Microsome
Sequence of Cytochrome P450 2C9 (P11712 whole entry): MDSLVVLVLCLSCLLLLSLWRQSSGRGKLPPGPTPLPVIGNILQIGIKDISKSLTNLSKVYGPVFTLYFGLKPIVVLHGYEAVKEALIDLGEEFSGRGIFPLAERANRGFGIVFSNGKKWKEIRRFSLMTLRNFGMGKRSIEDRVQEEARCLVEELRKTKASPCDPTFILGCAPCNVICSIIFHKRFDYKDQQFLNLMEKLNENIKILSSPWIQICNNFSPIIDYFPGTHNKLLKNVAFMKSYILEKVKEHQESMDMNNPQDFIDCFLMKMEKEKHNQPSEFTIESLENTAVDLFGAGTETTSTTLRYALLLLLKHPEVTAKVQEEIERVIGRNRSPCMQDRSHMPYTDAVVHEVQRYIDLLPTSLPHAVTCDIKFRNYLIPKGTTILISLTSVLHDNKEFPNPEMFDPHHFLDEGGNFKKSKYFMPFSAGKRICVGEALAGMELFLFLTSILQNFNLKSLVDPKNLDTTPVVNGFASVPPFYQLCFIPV

Cytochrome P450 2D6 = Cytochrome P450 2D6 (Homo sapiens, UniProt P10635); test: Inhibition of CYP2D6 in human liver microsomes using dextromethorphan as substrate preincubated for 10 mins followed by NADPH addition and measured after 10 mins by LC-MS/MS analysis; assay type: ADME, Microsome
Sequence of Cytochrome P450 2D6 (P10635 whole entry): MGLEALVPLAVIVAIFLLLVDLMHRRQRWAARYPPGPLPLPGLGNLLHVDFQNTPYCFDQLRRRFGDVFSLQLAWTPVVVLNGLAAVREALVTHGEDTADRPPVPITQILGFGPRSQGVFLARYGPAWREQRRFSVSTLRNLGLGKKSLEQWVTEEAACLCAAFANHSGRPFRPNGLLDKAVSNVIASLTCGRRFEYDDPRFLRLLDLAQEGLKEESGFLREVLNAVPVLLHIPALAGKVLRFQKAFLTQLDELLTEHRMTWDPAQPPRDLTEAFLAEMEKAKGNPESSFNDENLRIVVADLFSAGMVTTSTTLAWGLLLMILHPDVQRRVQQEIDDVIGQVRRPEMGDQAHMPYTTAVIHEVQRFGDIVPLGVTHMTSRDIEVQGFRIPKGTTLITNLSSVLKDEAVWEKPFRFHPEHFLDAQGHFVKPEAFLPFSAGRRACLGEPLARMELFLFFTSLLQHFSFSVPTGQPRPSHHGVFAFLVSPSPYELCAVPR

[11] = Inhibition of CYP3A4 in human liver microsomes using midazolam as substrate preincubated for 10 mins followed by NADPH addition and measured after 10 mins by LC-MS/MS analysis; assay type: ADME, Microsome
[12] = Inhibition of CYP3A4 in human liver microsomes using testosterone as substrate preincubated for 10 mins followed by NADPH addition and measured after 10 mins by LC-MS/MS analysis; assay type: ADME, Microsome

COc1cc2c(cc1OC)S(=O)(=O)C(CC1(F)CCN(Cc3ccc(F)cc3F)CC1)C2 (configuration not stated)
IC50 (Acetylcholinesterase): 7.1 nM

COc1cc2c(cc1OC)S(=O)(=O)C(CC1CCN(Cc3cccc(F)c3)CC1)C2 (configuration not stated)
IC50 (Acetylcholinesterase): 4.4 nM

COc1cc2c(cc1OC)S(=O)(=O)C(CC1(F)CCN(Cc3ccc(F)cc3)CC1)C2 (configuration not stated)
IC50 (Acetylcholinesterase): 11.3 nM

COc1cc2c(cc1OC)S(=O)(=O)C(CC1(F)CCN(Cc3ccccc3)CC1)C2 (configuration not stated)
IC50 (Acetylcholinesterase): 4.1 nM

COc1cc2c(cc1OC)S(=O)(=O)C(CC1(F)CCN(Cc3ccccc3C)CC1)C2 (configuration not stated)
IC50 (Acetylcholinesterase): 12.1 nM

COc1cc2c(cc1OC)S(=O)(=O)C(CC1(F)CCN(Cc3ccccc3F)CC1)C2 (configuration not stated)
IC50 (Acetylcholinesterase): 8.5 nM

COc1cc2c(cc1OC)S(=O)(=O)C(CC1(F)CCN(Cc3cccc(C)c3)CC1)C2 (configuration not stated)
IC50 (Acetylcholinesterase): 3.8 nM

COc1cc2c(cc1OC)S(=O)(=O)C(CC1(F)CCN(Cc3ccc(F)c(Cl)c3)CC1)C2 (configuration not stated)
IC50 (Acetylcholinesterase): 12.9 nM

COc1cc2cc(CC3CCN(Cc4ccccc4)CC3)sc2cc1OC
inhibition [1]: 46.6%

COc1cc2c(cc1OC)S(=O)(=O)C(CC1CCN(Cc3c(F)cc(F)cc3F)CC1)C2 (configuration not stated)
IC50 (Acetylcholinesterase): 128 nM

COc1cc2c(cc1OC)S(=O)(=O)/C(=C\C1CCN(Cc3ccccc3)CC1)C2
IC50 (Acetylcholinesterase): 11.1 nM

COc1cc2c(cc1OC)C(=O)C(CC1CCN(Cc3ccccc3)CC1)C2 (configuration not stated) [DONEPEZIL]
MNTC [2]: 100 µM
Activity (SH-SY5Y [3]): Active
Activity (SH-SY5Y [4]): Active
Activity (SH-SY5Y [5]): Active
Activity (SH-SY5Y [6]): Active
Activity (SH-SY5Y [7]): Dde
inhibition (Mus musculus [8]): Active
inhibition (Mus musculus [9]): Active
Activity (Mus musculus [10]): Active

COc1cc2c(cc1OC)S(=O)(=O)C(CC1CCN(Cc3ccc(F)cc3F)CC1)C2 (configuration not stated)
IC50 (Acetylcholinesterase): 14.7 nM

COc1cc2c(cc1OC)S(=O)(=O)C(CC1CCN(Cc3ccccc3)CC1)=C2
IC50 (Acetylcholinesterase): 317 nM

COc1cc2c(cc1OC)S(=O)(=O)C(CC1CCN(Cc3ccccc3F)CC1)C2 (configuration not stated)
IC50 (Acetylcholinesterase): 11.5 nM

COc1cc2c(cc1OC)S(=O)(=O)C(F)(CC1CCN(Cc3cccc(F)c3)CC1)C2 (configuration not stated)
IC50 (Cytochrome P450 2C9): > 20000 nM
IC50 (Cytochrome P450 2D6): > 20000 nM
IC50 [11]: > 20000 nM
IC50 [12]: > 20000 nM
